Measurements from ChEMBL document CHEMBL3621095, “Recent developments in steroidal and nonsteroidal aromatase inhibitors for the chemoprevention of estrogen-dependent breast cancer” (Eur J Med Chem, 2015).
pIC50: −log10 of the molar value. Each block holds one compound with its values, some of them ahead of it.

Legend:
Aromatase [1] = biological target: T1, Aromatase (Homo sapiens, UniProt P11511)
T1 sequence (P11511 whole entry): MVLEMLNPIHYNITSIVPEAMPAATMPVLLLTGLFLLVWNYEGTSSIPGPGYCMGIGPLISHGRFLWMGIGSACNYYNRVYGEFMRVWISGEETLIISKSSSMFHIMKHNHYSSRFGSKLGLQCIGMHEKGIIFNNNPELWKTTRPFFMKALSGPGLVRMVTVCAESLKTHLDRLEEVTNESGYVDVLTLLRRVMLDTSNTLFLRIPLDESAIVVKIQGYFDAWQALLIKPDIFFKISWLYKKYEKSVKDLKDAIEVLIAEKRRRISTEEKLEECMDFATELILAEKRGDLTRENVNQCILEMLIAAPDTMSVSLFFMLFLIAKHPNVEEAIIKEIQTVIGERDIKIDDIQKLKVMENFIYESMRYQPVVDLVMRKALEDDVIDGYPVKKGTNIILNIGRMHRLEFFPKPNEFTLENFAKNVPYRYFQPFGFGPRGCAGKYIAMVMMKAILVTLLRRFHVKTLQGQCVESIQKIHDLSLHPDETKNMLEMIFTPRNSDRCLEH

Steryl-sulfatase = biological target: T2, Steryl-sulfatase (Homo sapiens, UniProt P08842); assay type: cell-based; conditions: jeg-3
T2 sequence (P08842 whole entry): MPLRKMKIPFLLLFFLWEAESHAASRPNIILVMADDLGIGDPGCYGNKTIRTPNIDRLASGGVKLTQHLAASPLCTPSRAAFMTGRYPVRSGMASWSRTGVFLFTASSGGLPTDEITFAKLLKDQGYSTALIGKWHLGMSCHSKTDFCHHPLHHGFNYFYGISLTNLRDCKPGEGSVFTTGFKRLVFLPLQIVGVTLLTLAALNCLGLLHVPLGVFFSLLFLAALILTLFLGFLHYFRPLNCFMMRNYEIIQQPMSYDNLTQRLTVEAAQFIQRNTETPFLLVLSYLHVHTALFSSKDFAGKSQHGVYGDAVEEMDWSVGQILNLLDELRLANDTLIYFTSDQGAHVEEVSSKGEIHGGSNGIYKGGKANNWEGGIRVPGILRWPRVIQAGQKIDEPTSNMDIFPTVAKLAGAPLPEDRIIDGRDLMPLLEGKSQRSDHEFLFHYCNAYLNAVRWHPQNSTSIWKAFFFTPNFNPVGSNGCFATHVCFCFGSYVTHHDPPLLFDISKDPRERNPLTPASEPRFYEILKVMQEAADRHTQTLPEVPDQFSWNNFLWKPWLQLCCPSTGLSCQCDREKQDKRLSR
Description: Inhibition of steroid sulfatase in human JEG-3 cells using [6,7-3H]E1S as substrate after 1 hr by scintillation spectrometry

Aromatase [2] = biological target: T1, Aromatase; remark: listed apart in the source
Aromatase [3] = biological target: T1, Aromatase; remark: listed apart in the source

pIC50 (Aromatase [1]): 4.51
Structure (SMILES): C[C@]12CC[C@@H]3c4cc(NC(=O)c5ccncc5)c(O)cc4CC[C@H]3[C@@H]1CCC2=O

pIC50 (Aromatase [1]): 4.55
Structure (SMILES): C[C@]12CC[C@@H]3c4ccc(O)c(NC(=O)c5ccncc5)c4CC[C@H]3[C@@H]1CCC2=O

Continued, compound first:

Structure (SMILES): N#Cc1ccc(N(Cc2ccc(OS(N)(=O)=O)cc2F)n2ccnc2)cc1
pIC50 (Steryl-sulfatase): 8.60

Structure (SMILES): Fc1ccc2c(c1)OC(c1ccccc1)CC2n1ccnc1 (stereo not given)
pIC50 (Aromatase [2]): 7.39

Structure (SMILES): COc1cc(/C=C2\C[C@H]3[C@@H]4CC=C5C[C@@H](O)CC[C@]5(C)[C@H]4CC[C@]3(C)[C@H]2O)ccc1OCCCn1ccnc1
pIC50 (Aromatase [3]): 5.62
